{
  "source": "patent US20090176696A1",
  "about": "“Methods And Compositions For Modulating An Immune Response” (priority 2006, published 2009)",
  "key": {"[1]": {"tested_on": "KLH-specific T cell and antibody responses", "test": "TCT injection 6 hours before immunisation with KLH and E. coli heat labile enterotoxin (LT); ex vivo lymph node responses and antibody titres", "format": "in vivo, BALB/c mice", "description": "Groups of 5 BALB/c mice were injected subcutaneously into the flank with PBS or TCT (10 μg/mouse) and then immunised with KLH (20 μg/mouse) or KLH with E. coli heat labile enterotoxin (LT) (100 ng/mouse) 6 hours later. The T cell response was assessed 14 days later from local inguinal lymph node cells stimulated with antigen ex vivo.\nLymph node (FIG. 10) cell suspensions were cultured in the presence of various concentrations of KLH (2, 10, 50 μg/ml) and PMA/CD3 or medium were used as positive and negative controls respectively. Supernatants were collected 72 hours later. Concentrations of IFN-gamma, IL-10, IL-4 and IL-5 in supernatants were evaluated by ELISA (FIG. 10). KLH-specific antibody titres were also determined by ELISA (FIG. 11). Results are the mean responses (±SD) for 5 mice assessed individually in triplicate."}, "[2]": {"tested_on": "KLH-specific T cell responses", "test": "Footpad immunisation with KLH (PBS, alum or LPS) with or without TCT; popliteal lymph node cytokines", "format": "in vivo, BALB/c mice", "description": "BALB/c mice were injected subcutaneously into the footpad with either PBS alone, KLH (20 μg), KLH adsorbed to alum, KLH+LPS (10 μg) or KLH+TCT (10 or 25 μg), KLH+LPS+TCT or KLH+TCT adsorbed to alum. 5 days later mice were sacrificed and the popiliteal LNs were removed. Single LN cell suspensions were cultured in the presence of increasing concentrations of KLH (2-50 μg/ml) or PMA/CD3 or medium as positive and negative controls respectively. Supernatants were taken 3 days later and tested for IFN-γ, IL-10, IL-4 and IL-5 by ELISA. Results are mean (+/−SD) values for 5 mice per group."}, "[3]": {"conditions": "TCT 10 μg/mouse 6 hours before KLH and LT"}, "[4]": {"conditions": "TCT 10 μg/mouse 6 hours before KLH with LT"}, "[5]": {"conditions": "KLH and LPS, co-administration of TCT"}, "[6]": {"conditions": "KLH in alum, TCT 10 or 25 μg/mouse"}, "[7]": {"conditions": "KLH in alum, treatment with TCT"}, "[8]": {"conditions": "co-administration of TCT with KLH in PBS"}},
  "data": [
    {"molecule": "CC(=O)NC1C(OC2C3COC(O3)C(NC(C)=O)C2OC(C)C(=O)NC(C)C(=O)NC(CCC(=O)NC(CCCC(N)C(=O)NC(C)C(=O)O)C(=O)O)C(=O)O)OC(CO)C(O)C1O", "note": "(stereo not drawn) [TCT, N-acetylglucosaminyl-1,6-anhydro-N-acetylmuramylalanyl-γ-glutamyldiaminopimelylalanine]", "values": [
      {"measurement": "antigen-specific IFN-gamma production by lymph node cells", "setting": "[1]; [3]", "value": "significantly impaired"},
      {"measurement": "antigen-specific IL-4 production by lymph node cells", "setting": "[1]; [3]", "value": "significantly impaired"},
      {"measurement": "KLH-specific IL-5 production, lymph node cells", "setting": "[1]; [4]", "value": "reduction"},
      {"measurement": "KLH-specific IL-10 production, lymph node cells", "setting": "[1]; [4]", "value": "reduction"},
      {"measurement": "antigen-specific IgG1 titres", "setting": "[1]; TCT 6 hours before LT and KLH", "value": "no effect"},
      {"measurement": "antigen-specific IgG2a titres", "setting": "[1]; TCT 6 hours before LT and KLH", "value": "no effect"},
      {"measurement": "total KLH-specific IgG production", "setting": "[1]; TCT 6 hours before LT and KLH", "value": "no effect"},
      {"measurement": "IFN-γ production promoted with LPS", "setting": "[2]; [5]", "value": "not affected"},
      {"measurement": "IL-10 production promoted with LPS", "setting": "[2]; [5]", "value": "not affected"},
      {"measurement": "IL-4 response, draining lymph node cells", "setting": "[2]; [6]", "value": "significantly reduced"},
      {"measurement": "IL-5 response, draining lymph node cells", "setting": "[2]; [6]", "value": "significantly reduced"},
      {"measurement": "IFN-γ production, draining lymph node cells", "setting": "[2]; [7]", "value": "not significantly affected"},
      {"measurement": "IL-10 production, draining lymph node cells", "setting": "[2]; [7]", "value": "not significantly affected"},
      {"measurement": "IFN-γ response", "setting": "[2]; [8]", "value": "enhanced"},
      {"measurement": "IL-10 response", "setting": "[2]; [8]", "value": "enhanced"}
    ]}
  ]
}
